From PubChem BioAssay (NCI)
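Step 1: Grow cells in 96-well plates. Step 2: Expose to compound for 48 hours at 5 concentrations. Step 3: Interpolate endpoints linearly; if unreached, use highest concentration. GI50 = concentration required for 50% inhibition of growth. TGI marks complete inhibition of growth.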

What was measured:
Experiment in all cases: inhibition of tumour cell growth, NCI panel, 48 h
[1] = system: OVCAR-5 ovarian
[2] = system: SN12C renal
[3] = system: M14 melanoma
[4] = system: COLO 205 colon
[5] = system: HT29 colon
[6] = system: OVCAR-3 ovarian
[7] = system: MDA-MB-231 breast
[8] = system: MALME-3M melanoma
[9] = system: SK-MEL-2 melanoma
[10] = system: SK-OV-3 ovarian
[11] = system: NCI-H226 lung
[12] = system: CCRF-CEM leukemia
[13] = system: 786-0 renal
[14] = system: SF-295 CNS
[15] = system: U251 CNS
[16] = system: HOP-62 NSCLC
[17] = system: HCC-2998 colon
[18] = system: K-562 leukemia
[19] = system: KM12 colon
[20] = system: HCT-116 colon
[21] = system: TK-10 renal
[22] = system: A498 renal
[23] = system: MDA-MB-435
[24] = system: UACC-62 melanoma
[25] = system: HS 578T breast
[26] = system: IGROV1 ovarian
[27] = system: HCT-15 colon
[28] = system: PC-3 prostate
[29] = system: OVCAR-8 ovarian
[30] = system: SW-620 colon
[31] = system: HOP-92 NSCLC
[32] = system: SNB-19 CNS
[33] = system: RPMI-8226 leukemia
[34] = system: SF-268 CNS
[35] = system: A549 NSCLC
[36] = system: MOLT-4 leukemia
[37] = system: SNB-75 CNS
[38] = system: NCI-H522 lung
[39] = system: SF-539 CNS
[40] = system: CAKI-1 renal
[41] = system: MCF7 breast
[42] = system: NCI-H460 lung
[43] = system: T-47D breast
[44] = system: UO-31 renal
[45] = system: SK-MEL-5 melanoma
[46] = system: NCI-H23 lung
[47] = system: UACC-257 melanoma
[48] = system: NCI/ADR-RES ovarian
[49] = system: EKVX NSCLC
[50] = system: ACHN renal
[51] = system: SK-MEL-28 melanoma
[52] = system: BT-549 breast
[53] = system: DU-145 prostate
[54] = system: SR leukemia

**Q.** What does the source list for `C=C(CN1CCc2ccccc2C1)c1ccc(CCC(=O)Nc2ccccc2N)cc1`?
**A.** GI50 [1]: 54.1 µM; TGI [1]: > 100 µM; GI50 [2]: 17.3 µM; TGI [2]: 51 µM; GI50 [3]: 17.6 µM; TGI [3]: 34.3 µM; GI50 [4]: 23.6 µM; TGI [4]: 48 µM; GI50 [5]: 31 µM; TGI [5]: > 100 µM; GI50 [6]: 19.3 µM; TGI [6]: 63.5 µM; GI50 [7]: 18.6 µM; TGI [7]: 44.1 µM; GI50 [8]: 8.7 µM; TGI [8]: 36.8 µM; GI50 [9]: 23.9 µM; TGI [9]: 54 µM; GI50 [10]: 60.8 µM; TGI [10]: > 100 µM; GI50 [11]: 27.1 µM; TGI [11]: 71.2 µM; GI50 [12]: 4.66 µM; TGI [12]: > 100 µM; GI50 [13]: 18.3 µM; TGI [13]: > 100 µM; GI50 [14]: 24.2 µM; TGI [14]: 86.7 µM; GI50 [15]: 21.3 µM; TGI [15]: 50.3 µM; GI50 [16]: 65.7 µM; TGI [16]: > 100 µM; GI50 [17]: 17.1 µM; TGI [17]: 33.4 µM; GI50 [18]: 23 µM; TGI [18]: 56.9 µM; GI50 [19]: 21.9 µM; TGI [19]: 71.8 µM; GI50 [20]: 16.2 µM; TGI [20]: 32.4 µM; GI50 [21]: 43.1 µM; TGI [21]: > 100 µM; GI50 [22]: 26.1 µM; TGI [22]: 68.7 µM; GI50 [23]: 22.5 µM; TGI [23]: 49.9 µM; GI50 [24]: 26.9 µM; TGI [24]: > 100 µM; GI50 [25]: 44 µM; TGI [25]: > 100 µM; GI50 [26]: 16.3 µM; TGI [26]: 41.9 µM; GI50 [27]: 35.4 µM; TGI [27]: 97.9 µM; GI50 [28]: 25.4 µM; TGI [28]: > 100 µM; GI50 [29]: 26.2 µM; TGI [29]: 59.5 µM; GI50 [30]: 28.3 µM; TGI [30]: 65.8 µM; GI50 [31]: 87.4 µM; TGI [31]: > 100 µM; GI50 [32]: 64.3 µM; TGI [32]: > 100 µM; GI50 [33]: 14.8 µM; TGI [33]: > 100 µM; GI50 [34]: 14.6 µM; TGI [34]: 45.3 µM; GI50 [35]: 41.3 µM; TGI [35]: > 100 µM; GI50 [36]: 4.65 µM; TGI [36]: 26 µM; GI50 [37]: 25.3 µM; TGI [37]: 64.4 µM; GI50 [38]: 16.2 µM; TGI [38]: 38.2 µM; GI50 [39]: 19.4 µM; TGI [39]: 37 µM; GI50 [40]: 20.9 µM; TGI [40]: 77.1 µM; GI50 [41]: 21.1 µM; TGI [41]: 54.7 µM; GI50 [42]: 16.8 µM; TGI [42]: 38.6 µM; GI50 [43]: 34.3 µM; TGI [43]: > 100 µM; GI50 [44]: 12 µM; TGI [44]: 28.7 µM; GI50 [45]: 18 µM; TGI [45]: 33.2 µM; GI50 [46]: 28.6 µM; TGI [46]: 85.2 µM; GI50 [47]: 22.6 µM; TGI [47]: 46.4 µM; GI50 [48]: 18.9 µM; TGI [48]: 83.3 µM; GI50 [49]: 37.1 µM; TGI [49]: > 100 µM; GI50 [50]: 34.1 µM; TGI [50]: > 100 µM; GI50 [51]: 42.6 µM; TGI [51]: > 100 µM; GI50 [52]: 16.4 µM; TGI [52]: 55.1 µM; GI50 [53]: 18.7 µM; TGI [53]: 48.7 µM; GI50 [54]: 18.7 µM; TGI [54]: 74.5 µM
